Assay results from patent US20090209536A1, “AMINOQUINAZOLINE CANNABINOID RECEPTOR MODULATORS FOR TREATMENT OF DISEASE” (KALYPSYS, INC., priority 2007, published 2009).
Where two headings read alike, the source gives them in different places.

Legend:
[1] = target: T1, human cannabinoid receptor type 2 (Homo sapiens, UniProt P34972); experiment: Human CB2 Radioligand Binding Assay; conditions: membranes from stably transfected CHO CB2 cells
T1 construct: expressed in transfected cells; membrane preparation
Procedure: 1. Human CB2 Radioligand Binding Assay
This receptor binding filtration assay measures the receptor-ligand interactions of compounds by measuring ability to compete with a radiolabeled control ligand. Reactions were performed in 96 deep-well plate (Costar 3961) with a final volume of 600 ul. Compounds were added to each well either in single point (10 uM final) or dose-response. Compounds were delivered in DMSO or further diluted in incubation buffer to a final assay DMSO concentration of 1%. Incubation buffer (50 mM Tris-HCl pH 7.4, 2.5 mM EGTA, 5 mM MgCl2, 5.0 mg/ml fatty acid free BSA) was added to each well. Following buffer addition, [^3H] CP-55,940 was added. Tritiated CP-55,940 (Perkin Elmer) was used at the Kd determined from prior saturation binding experiments conducted on each lot of membranes. Membrane preparations from stably transfected CHO CB2 cells were added and the reaction was incubated for 90 minutes at 30° C. Unifilter GF/C filtration plates (Perkin Elmer) were pre-wet with 0.05% polyethylenimine. Samples were transferred to Unifilter plates and separation of unbound radioligand was achieved using a vacuum manifold (Millipore). Following thorough washing with 5 ml/well ice-cold wash buffer (50 mM Tris-HCl pH 7.4, 2.5 mM EGTA, 5 mM MgCl2, 0.5 mg/ml fatty acid free BSA), filterplates were dried completely. Betaplate Scint Scintillation cocktail (25 ul, Perkin Elmer) was applied and plates were read using Microbeta Trilux (Wallac). Data analysis was performed in Spotfire. Activity of the positive control (100 nM CP-55,940) was set as 100% efficacy.
Stable recombinant Human CB2-CHO cell membranes were prepared as follows: Chinese Hamster Ovarian (CHO) cells stably expressing human cannabinoid receptor type 2 were grown to 90% confluence in 15×100 mm culture dishes under puromycin selection (5 ug/ml) Cells were harvested from culture flasks using a cell scraper, were washed once with cold phosphate-buffered saline (calcium and magnesium free) and pelleted by centrifugation at 400 g for 5 min at 4° C. Cell pellet was washed once with cold phosphate-buffered saline and centrifuged again at 400×g for 5 min at 4° C. The pellet was suspended in ice-cold lysis buffer (10 mM Tris-HCl, 0.1 mM EDTA, containing […], pH 7.5) and homogenized in a chilled 7 ml glass dounce homogenizer using 50 strokes. The homogenate was centrifuged at 400 g for 15 min at 4° C. The cloudy supernatant was collected and centrifuged at 41000 g for 30 min at 4° C. The resulting pellet was washed with ice-cold sucrose-free lysis buffer and centrifuged again at 41000 g for 30 min at 4° C. The membrane pellet was suspended in sucrose-free storage buffer (10 mm Tris-HCl, 0.1 mM EDTA, pH 7.5) to a concentration of 2-3 mg protein/ml. Aliquots were flash frozen in liquid nitrogen and stored at −80° C. Concentration was determined using Dc protein assay kit (Bio-Rad).

[2] = target: T2, human cannabinoid receptor type 1 (Homo sapiens, UniProt P21554); experiment: Human CB1 Radioligand Binding Assay (basis of selectivity, CB2 vs. CB1); conditions: CB1: HEK 293 EBNA cells expressing human CB1; CB2: CHO CB2 membranes
T2 construct: purchased Perkin Elmer RBHCB1M; host or cells: HEK 293 EBNA cells
Procedure: 2. Human CB1 Radioligand Binding Assay
The incubation buffer was composed of 50 mM Tris-HCl pH 7.4, 2.5 mM EDTA, 5 mM MgCl2, 5.0 mg/ml fatty acid free BSA and the wash buffer was composed of 50 mM Tris-HCl pH 7.4, 2.5 mM EDTA, 5 mM MgCl2, 0.5 mg/ml fatty acid free BSA.

[3] = competition with [3H] CP-55,940, read-out: CB2 Ligand Binding Asssay EC50

T2 sequence (P21554 whole entry): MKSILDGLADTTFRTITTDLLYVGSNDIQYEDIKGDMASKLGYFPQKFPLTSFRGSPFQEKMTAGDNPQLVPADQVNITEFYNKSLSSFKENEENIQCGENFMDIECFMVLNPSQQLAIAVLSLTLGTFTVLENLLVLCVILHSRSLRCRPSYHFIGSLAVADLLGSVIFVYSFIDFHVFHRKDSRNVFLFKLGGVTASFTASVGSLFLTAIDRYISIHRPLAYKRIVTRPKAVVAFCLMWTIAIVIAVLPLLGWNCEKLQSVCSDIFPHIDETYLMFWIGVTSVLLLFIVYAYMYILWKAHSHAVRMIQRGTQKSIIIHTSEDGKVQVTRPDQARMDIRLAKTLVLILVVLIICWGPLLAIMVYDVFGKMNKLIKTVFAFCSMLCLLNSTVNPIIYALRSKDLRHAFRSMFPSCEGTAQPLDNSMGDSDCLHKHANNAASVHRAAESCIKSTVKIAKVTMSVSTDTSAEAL
T1 sequence (P34972 whole entry): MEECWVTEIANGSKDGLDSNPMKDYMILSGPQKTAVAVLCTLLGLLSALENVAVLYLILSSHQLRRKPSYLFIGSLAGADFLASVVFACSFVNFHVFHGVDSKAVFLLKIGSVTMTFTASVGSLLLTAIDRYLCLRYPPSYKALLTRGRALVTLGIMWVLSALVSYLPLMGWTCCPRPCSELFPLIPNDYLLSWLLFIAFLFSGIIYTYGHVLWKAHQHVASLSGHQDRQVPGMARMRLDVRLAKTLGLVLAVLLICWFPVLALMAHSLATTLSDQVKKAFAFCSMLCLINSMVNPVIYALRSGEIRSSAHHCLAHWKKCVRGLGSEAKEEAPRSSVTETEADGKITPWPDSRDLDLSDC

Row | Structure (SMILES) | EC50 [1, 3] | Selectivity, CB2 vs. CB1 [2] | EC50 ([1]; CB2 Ligand Binding Asssay EC50, competition with [3H] CP-55,940)
1 | CC(C)(C)c1ccc(Nc2nc(-c3ccc(F)c(F)c3)nc3ccccc23)cc1 [Example 20, N-(4-tert-Butylphenyl)-2-(3,4-difluorophenyl)quinazolin-4-amine] | < 1000 nM | + (+ indicates > 10−fold) | –
2 | CN(c1ccc(C(C)(C)C)cc1)c1nc(-c2ccc(F)c(F)c2)nc2ccccc12 [Example 21, N-(4-tert-Butylphenyl)-2-(3,4-difluorophenyl)-N-methylquinazolin-4-amine] | > 1000 nM | − (− indicates ≦ 10−fold) | –
3 | CN(Cc1ccccc1)c1nc(-c2ccc(F)cc2F)nc2ccccc12 [Example 26, Benzyl[2-(2,4-difluorophenyl)quinazolin-4-yl]methylamine] | > 1000 nM | − (− indicates ≦ 10−fold) | –
4 | Clc1ccc(-c2nc(NCC3CC3)c3ccccc3n2)c(Cl)c1 [Example 30, Cyclopropylmethyl[2-(2,4-dichlorophenyl)quinazolin-4-yl]amine] | – | + (+ indicates > 10−fold) | > 1000 nM
5 | Clc1ccc(-c2nc(NCc3ccccc3)c3ccccc3n2)c(Cl)c1 [Example 31, Benzyl[2-(2,4-dichlorophenyl)quinazolin-4-yl]amine] | > 1000 nM | − (− indicates ≦ 10−fold) | –
6 | CN(Cc1ccccc1)c1nc(-c2ccc(Cl)cc2Cl)nc2ccccc12 [Example 32, N-Benzyl-2-(2,4-dichlorophenyl)-N-methylquinazolin-4-amine] | > 1000 nM | − (− indicates ≦ 10−fold) | –
7 | CN1CCN(c2nc(C3CCCCC3)nc3ccccc23)CC1 [Example 33, 2-Cyclohexyl-4-(4-methylpiperazin-1-yl)quinazoline] | < 1000 nM | − (− indicates ≦ 10−fold) | –
8 | c1ccc2c(N3CCOCC3)nc(C3CCCCC3)nc2c1 [Example 35, 4-(2-Cyclohexylquinazolin-4-yl)morpholine] | < 1000 nM | − (− indicates ≦ 10−fold) | –
9 | Clc1ccccc1Nc1nc(C2CCCCC2)nc2ccccc12 [Example 37, N-(2-Chlorophenyl)-2-cyclohexylquinazolin-4-amine] | > 1000 nM | − (− indicates ≦ 10−fold) | –
10 | c1ccc(CNc2nc(C3CCCCC3)nc3ccccc23)cc1 [Example 38, N-Benzyl-2-cyclohexylquinazolin-4-amine] | > 1000 nM | − (− indicates ≦ 10−fold) | –
11 | CCCc1nc(N2CCN(C)CC2)c2ccccc2n1 [Example 41, 4-(4-Methylpiperazin-1-yl)-2-propylquinazoline] | > 1000 nM | − (− indicates ≦ 10−fold) | –
12 | c1ccc(-c2nc(N3CCCC3)c3ccccc3n2)cc1 [Example 48, 2-Phenyl-4-(pyrrolidin-1-yl)quinazoline] | > 1000 nM | − (− indicates ≦ 10−fold) | –
13 | Clc1ccccc1Nc1nc(-c2ccccc2)nc2ccccc12 [Example 49, N-(2-Chlorophenyl)-2-phenylquinazolin-4-amine] | > 1000 nM | − (− indicates ≦ 10−fold) | –
14 | c1ccc(-c2nc(NCC3CC3)c3ccccc3n2)cc1 [Example 50, N-(Cyclopropylmethyl)-2-phenylquinazolin-4-amine] | > 1000 nM | − (− indicates ≦ 10−fold) | –
15 | CC(C)CNc1nc(-c2ccccc2)nc2ccccc12 [Example 51, N-iso-Butyl-2-phenylquinazolin-4-amine] | > 1000 nM | − (− indicates ≦ 10−fold) | –
16 | c1ccc(-c2nc(N3CCCCC3)c3ccccc3n2)cc1 [Example 52, 2-Phenyl-4-(piperidin-1-yl)quinazoline] | > 1000 nM | − (− indicates ≦ 10−fold) | –

The next lines start with results.

Row | EC50 [1, 3] | Selectivity, CB2 vs. CB1 [2] | Structure (SMILES) | EC50 ([1]; CB2 Ligand Binding Asssay EC50, competition with [3H] CP-55,940)
17 | < 1000 nM | − (− indicates ≦ 10−fold) | Fc1ccc(-c2nc(N3CCCC3)c3ccccc3n2)c(F)c1 [Example 22, 2-(2,4-Difluorophenyl)-4-(pyrrolidin-1-yl)quinazoline] | –
18 | > 1000 nM | − (− indicates ≦ 10−fold) | Fc1ccc(-c2nc(N3CCCCC3)c3ccccc3n2)c(F)c1 [Example 23, 2-(2,4-Difluorophenyl)-4-(piperidin-1-yl)quinazoline] | –
19 | < 1000 nM | − (− indicates ≦ 10−fold) | CC(=O)N1CCN(c2nc(-c3ccc(F)cc3F)nc3ccccc23)CC1 [Example 24, 1-(4-(2-(2,4-Difluorophenyl)quinazolin-4-yl)piperazin-1-yl)ethanone] | –
20 | > 1000 nM | − (− indicates ≦ 10−fold) | Fc1ccc(-c2nc(N3CCOCC3)c3ccccc3n2)c(F)c1 [Example 25, 4-(2-(2,4-Difluorophenyl)quinazolin-4-yl)morpholine] | –
21 | < 1000 nM | − (− indicates ≦ 10−fold) | CN1CCN(c2nc(-c3ccc(F)cc3F)nc3ccccc23)CC1 [Example 27, 2-(2,4-Difluorophenyl)-4-(4-methylpiperazin-1-yl)quinazoline] | –
22 | > 1000 nM | + (+ indicates > 10−fold) | Clc1ccc(-c2nc(N3CCCC3)c3ccccc3n2)c(Cl)c1 [Example 28, 2-(2,4-Dichlorophenyl)-4-pyrrolidin-1-ylquinazoline] | –
23 | < 1000 nM | + (+ indicates > 10−fold) | Clc1ccc(-c2nc(N3CCCCC3)c3ccccc3n2)c(Cl)c1 [Example 29, 2-(2,4-Dichlorophenyl)-4-piperidin-1-ylquinazoline] | –
24 | < 1000 nM | − (− indicates ≦ 10−fold) | c1ccc2c(N3CCCCC3)nc(C3CCCCC3)nc2c1 [Example 34, 2-Cyclohexyl-4-(piperidin-1-yl)quinazolines] | –
25 | < 1000 nM | + (+ indicates > 10−fold) | c1ccc2c(N3CCCC3)nc(C3CCCCC3)nc2c1 [Example 36, 2-Cyclohexyl-4-(pyrrolidin-1-yl)quinazolines] | –
26 | > 1000 nM | − (− indicates ≦ 10−fold) | CCCc1nc(N2CCCC2)c2ccccc2n1 [Example 40, 2-Propyl-4-(pyrrolidin-1-yl)quinazoline] | –
27 | < 1000 nM | + (+ indicates > 10−fold) | CN1CCN(c2nc(-c3ccc(C(F)(F)F)cc3)nc3ccccc23)CC1 [Example 42, 4-(4-Methylpiperazin-1-yl)-2-(4-(trifluoromethyl)phenyl)quinazoline] | –
28 | < 1000 nM | + (+ indicates > 10−fold) | FC(F)(F)c1ccc(-c2nc(N3CCOCC3)c3ccccc3n2)cc1 [Example 43, 4-(2-(4-(Trifluoromethyl)phenyl)quinazolin-4-yl)morpholine] | –
29 | < 1000 nM | − (− indicates ≦ 10−fold) | FC(F)(F)c1ccc(-c2nc(N3CCCCC3)c3ccccc3n2)cc1 [Example 44, 4-(Piperidin-1-yl)-2-(4-(trifluoromethyl)phenyl)quinazoline] | –
30 | < 1000 nM | + (+ indicates > 10−fold) | FC(F)(F)c1ccc(-c2nc(N3CCCC3)c3ccccc3n2)cc1 [Example 45, 4-(Pyrrolidin-1-yl)-2-(4-(trifluoromethyl)phenyl)quinazoline] | –
31 | < 1000 nM | + (+ indicates > 10−fold) | CC(C)(C)c1ccc(Nc2nc(-c3ccc(C(F)(F)F)cc3)nc3ccccc23)cc1 [Example 46, (4-tert-Butylphenyl)-[2-(4-trifluoromethylphenyl)quinazolin-4-yl]amine] | –
